ChEMBL document CHEMBL3885861, “Open TG-GATES”

Organism: Rattus norvegicus
Test: Open TG-GATES - Regimen: Single
Format: toxicity, organism-based, Sprague-Dawley
Parameters: regimen Single, gender Male, age 6 weeks
Details: in vivo, po, 30 mg/kg, route gavage, dose level Low; for APTT / Bas / Eos / Fbg / Hb / Ht / Lym / MCH / MCHC / MCV / Mono / Neu / PT / Plat / RBC / Ret / WBC: tissue Blood; for KIDNEY_L / KIDNEY_R / KIDNEY_TOTAL: tissue Kidney; for LIVER: tissue Liver; for A/G / ALP / ALT / AST / BUN / CRE / Ca / Cl / DBIL / GLC / IP / K / LDH / Na / PL / RALB / TBIL / TC / TG / TP / gamma-GTP: tissue Plasma

## Cc1ccc(C)c(OCCCC(C)(C)C(=O)O)c1 [GEMFIBROZIL]
3 h
  TERMINAL_BW: 219.6 g
  APTT: 16 s
  Bas: 0%
  Eos: 0.6%
  Fbg: 282.6 mg/dL
  Hb: 14.2 g/dL
  Ht: 41%
  Lym: 79.2%
  MCH: 22.1 pg
  MCHC: 34.7%
  MCV: 63.6 fL
  Mono: 2.8%
  Neu: 16.6%
  PT: 12.4 s
  Plat: 113.5 x10_4/uL
  RBC: 644.2 x10_4/ul
  Ret: 7%
  WBC: 92.7 x10_2/uL
  KIDNEY_L: 0.9 g
  KIDNEY_R: 0.9 g
  KIDNEY_TOTAL: 1.8 g
  LIVER: 9.1 g
  A/G: 0.9
  ALP: 1552.4 IU/L
  ALT: 48.6 IU/L
  AST: 74.6 IU/L
  BUN: 11.6 mg/dL
  CRE: 0.2 mg/dL
  Ca: 11.2 mg/dL
  Cl: 106.8 meq/L
  DBIL: 0.046 mg/dL
  GLC: 181 mg/dL
  IP: 9.7 mg/dL
  K: 4 meq/L
  LDH: 60.8 IU/L
  Na: 141.6 meq/L
  PL: 156.2 mg/dL
  RALB: 2.6 g/dL
  TBIL: 0.048 mg/dL
  TC: 70 mg/dL
  TG: 141.4 mg/dL
  TP: 5.5 g/dL
  gamma-GTP: 1 IU/L
6 h
  TERMINAL_BW: 221.2 g
  APTT: 15.2 s
  Bas: 0%
  Eos: 0.6%
  Fbg: 335.6 mg/dL
  Hb: 14.3 g/dL
  Ht: 41.1%
  Lym: 78.6%
  MCH: 22.1 pg
  MCHC: 34.9%
  MCV: 63.4 fL
  Mono: 2.4%
  Neu: 17.6%
  PT: 12.3 s
  Plat: 122 x10_4/uL
  RBC: 649.2 x10_4/ul
  Ret: 6.8%
  WBC: 75.7 x10_2/uL
  KIDNEY_L: 1 g
  KIDNEY_R: 0.9 g
  KIDNEY_TOTAL: 1.9 g
  LIVER: 9.2 g
  A/G: 0.9
  ALP: 1429.6 IU/L
  ALT: 41 IU/L
  AST: 75 IU/L
  BUN: 10.4 mg/dL
  CRE: 0.2 mg/dL
  Ca: 11.3 mg/dL
  Cl: 107.2 meq/L
  DBIL: 0.044 mg/dL
  GLC: 188 mg/dL
  IP: 10.4 mg/dL
  K: 4.2 meq/L
  LDH: 60.6 IU/L
  Na: 142.2 meq/L
  PL: 150.4 mg/dL
  RALB: 2.7 g/dL
  TBIL: 0.054 mg/dL
  TC: 77.2 mg/dL
  TG: 90.2 mg/dL
  TP: 5.6 g/dL
  gamma-GTP: 1.6 IU/L
9 h
  TERMINAL_BW: 224 g
  APTT: 15 s
  Bas: 0%
  Eos: 0.8%
  Fbg: 313 mg/dL
  Hb: 13.8 g/dL
  Ht: 40.2%
  Lym: 76.8%
  MCH: 21.3 pg
  MCHC: 34.3%
  MCV: 62 fL
  Mono: 3.4%
  Neu: 18%
  PT: 12 s
  Plat: 106.6 x10_4/uL
  RBC: 649.2 x10_4/ul
  Ret: 7.1%
  WBC: 68.1 x10_2/uL
  KIDNEY_L: 0.9 g
  KIDNEY_R: 0.9 g
  KIDNEY_TOTAL: 1.9 g
  LIVER: 8.6 g
  A/G: 0.9
  ALP: 1676.4 IU/L
  ALT: 38 IU/L
  AST: 69.2 IU/L
  BUN: 11.8 mg/dL
  CRE: 0.2 mg/dL
  Ca: 10.9 mg/dL
  Cl: 107 meq/L
  DBIL: 0.046 mg/dL
  GLC: 189.2 mg/dL
  IP: 11.3 mg/dL
  K: 3.8 meq/L
  LDH: 52.8 IU/L
  Na: 143.4 meq/L
  PL: 147 mg/dL
  RALB: 2.6 g/dL
  TBIL: 0.05 mg/dL
  TC: 78.6 mg/dL
  TG: 66.4 mg/dL
  TP: 5.4 g/dL
  gamma-GTP: 1 IU/L
24 h
  TERMINAL_BW: 227.1 g
  APTT: 14.5 s
  Bas: 0%
  Eos: 1%
  Fbg: 284.8 mg/dL
  Hb: 13.8 g/dL
  Ht: 39.8%
  Lym: 75.6%
  MCH: 22.3 pg
  MCHC: 34.7%
  MCV: 64.3 fL
  Mono: 2.4%
  Neu: 20.6%
  PT: 12.1 s
  Plat: 112.3 x10_4/uL
  RBC: 620 x10_4/ul
  Ret: 7.1%
  WBC: 70.3 x10_2/uL
  KIDNEY_L: 1 g
  KIDNEY_R: 1 g
  KIDNEY_TOTAL: 2 g
  LIVER: 10.5 g
  A/G: 0.9
  ALP: 1729.6 IU/L
  ALT: 47.4 IU/L
  AST: 70.4 IU/L
  BUN: 16 mg/dL
  CRE: 0.2 mg/dL
  Ca: 11.3 mg/dL
  Cl: 106.4 meq/L
  DBIL: 0.044 mg/dL
  GLC: 191 mg/dL
  IP: 7.7 mg/dL
  K: 4.5 meq/L
  LDH: 63.6 IU/L
  Na: 142.2 meq/L
  PL: 137.6 mg/dL
  RALB: 2.7 g/dL
  TBIL: 0.036 mg/dL
  TC: 68.6 mg/dL
  TG: 100.6 mg/dL
  TP: 5.6 g/dL
  gamma-GTP: 0.8 IU/L
